In patent publication US20260102407A1, “TREATMENT METHODS” (priority 2020, published 2026):

How the values were obtained:
[1] = GLP ocular pharmacokinetics study, single intravitreal injection; assay type: in vivo; settings: rabbit, eye, other: intravitreal injection; rabbits; single intravitreal injection 10 μg/50 μl; read-out: ocular half-life (t1/2) (converted)
[2] = test system: AP-1 response element; assay: AP-1 response element Firefly luciferase high-throughput screen in 293/AP-1-luc cells; assay type: cell-based, human; settings: 11-point titration curves; TPA-induced 293/AP-1-luc cells
Excerpt: High-throughput screen of compound library. Hits were selected from the ˜100,000 compound Lead Discovery Library at the HTS Facility at Walter & Eliza Hall Institute of Medical Research (WEHI, Bundoora, Vic) with a commercially-available human embryonic kidney (HEK)-293 cell-based assay in 384-well microtitre plates in which Firefly luciferase was driven by multiple copies of the AP-1 response element (293/AP-1-luc cells, Panomics, Fremont, CA). Briefly, the cell-based assay involved plating 5×10^3 cells into 384-well plates in DMEM, pH 7.4 containing 10% FBS. After ˜18 h, the cells were induced with 10 ng/ml […] (TPA) (Sigma, St Louis, MO) in the absence or presence of test compound, then after ˜18 h, luciferase activity was measured using a luminometer. The hit rate of the primary screen was 2.4%. […] A substructure filter was then applied to remove pan-assay interference compounds (Baell, J. B., et al., J Med Chem 53, 2719-2740 (2010)) and using the most stringent filtering criteria 256 hits were selected for further study. After dose response testing, 24 compounds with molecular weight <400 Da were reordered from suppliers and tested in secondary assays.

[3] = test system: VCAM-1; assay: Matrigel plug assay, VCAM-1 staining; assay type: in vivo; settings: C57BL/6 mice; 2.5 mg/mouse; 7 days
Experimental: Matrigel plug assay. Matrigel (500 μl) containing VEGF-A165 (100 ng/ml), heparin (10U) and BT2 or BT3 (2.5 mg/mouse) or its vehicle (saline containing 0.01% DMSO and 0.5% Tween 80) was injected subcutaneously into the left flanks of male 8 week-old C57BL/6 mice. After 7d the mice were sacrificed by CO2 asphyxiation and the plugs carefully removed. Formalin-fixed paraffin embedded sections were prepared from Matrigel plugs for immunohistological assessment. Heat-induced epitope retrieval was applied to all deparaffinized sections (4 μm Superfrost slides) in citrate buffer, pH 6 for 5 min at 110° C. Immunostaining for all groups with a given antibody was performed simultaneously and development time was identical. […]
Slides were scanned using an Aperio ScanScope XT slide scanner (Leica Biosystems, Mt Waverley, Vic Australia) and images captured using ImageScope software (Leica Biosystems). Positive intraplug staining was assessed using Image-Pro Plus software (Cybernetics, Bethesda, MD) in 5-12 randomly selected fields of view for each plug photographed under 10× (CD31), 20× (VCAM-1) and 40× (FosB) objectives and expressed as integrated optical density (IOD, the product of calibrated intensity (optical density) and area, i.e. IOD=intensity (mean)×area) (Media Cybernetics) (Liu, H., et al., Sci Rep 6, 21319 (2016)). […]

CCOC(=O)Nc1ccc2c(c1)C(=O)N(CC)c1ccccc1O2 [BT2, (10-ethyl-11-oxo-10,11-dihydro-dibenzo[b,f][1,4]oxazepin-2-yl)-carbamic acid ethyl ester]
half-life [1]: 79.2 h | IC50, AP-1 luciferase screen [2]: micromolar or submicromolar range | VCAM-1 immunoreactivity in Matrigel plugs [3]: inhibited
